Assays:
[1] = tested on: rats exposed to acute altitude hypoxia; assay: Blood glucose in rats exposed to acute altitude hypoxia (6000 m, 8 h, after 7 days intragastric); type: in vivo, Wistar rat
Description: (§1) Select healthy Wistar rats weight 160-200 g, half female and half male. After feeding for 3 days, these Wistar rats are randomly divided into ten groups according to their body weight, each group has 16±2 rats. The groups are divided as follows: five groups of the hypoxic exposure drug test group, respectively, are given 0.91 mg/kg, 1.83 mg/kg, 3.66 mg/kg, 7.31 mg/kg, and 14.63 mg/kg drugs. […] After continuous intragastric administration for 7 days, the animals in the hypoxic exposure group are simultaneously put into the decompression and hypoxia compound experimental chamber, the hatch is closed, and the pressure is reduced at a speed of 10 m/s. After being raised to an altitude of 6000 m and maintained for 8 hours, the speed in 10 m/s drops is reduced to normal altitude, open the hatch, and then take out the animal, collect blood samples (after standing for 1 hour, the supernatant is centrifuged and stored at −20° C.), and liver tissue samples. Detection indicator includes body weight, serum blood glucose, ATP, lactic acid, endothelin, nitric oxide, SOD, CO, MDA related to oxidative stress, and total protein, albumin, triglycerides, total cholesterol, high-density lipoprotein cholesterol, low-density lipoprotein cholesterol, glutamic pyruvic transaminase, total bilirubin, gluamic oxalacetic transaminase, serum urea nitrogen, creatinine, uric acid, lactate dehydrogenase, creatine kinase, α-hydroxybutyrate dehydrogenase; liver ATP, hepatic glycogen. Except that the formal oxygen control animal group is not put into the decompression and hypoxia compound experimental chamber, other experimental conditions and detection indicators are the same.
(§2) Measure blood glucose, total protein, albumin, triglycerides, total cholesterol, high-density lipoprotein cholesterol, low-density lipoprotein cholesterol, glutamic-pyruvic transaminase, total bilirubin, glutamic oxalacetic transaminase, serum urea nitrogen, creatinine, uric acid, lactate dehydrogenase, creatine kinase, α-hydroxybutyrate dehydrogenase, blood homocysteine by using an automatic blood biochemical analyzer.

[2] = tested on: rats exposed to acute altitude hypoxia; assay: Renal function in rats exposed to acute altitude hypoxia; type: in vivo, Wistar rat
Description: as §1, §2

[3] = tested on: rats with acute altitude hypoxia injury; assay: Serum energy metabolism indexes (ATP, lactic acid) in rats with acute altitude hypoxia injury; type: in vivo, Wistar rat
Description: Determination of adenosine triphosphate (ATP): Perform enzyme-linked immunosorbent assay by double-antibody one-step sandwich method. To the coated microwells pre-coated with rat adenosine triphosphate (ATP) capture antibody, add in sequence the specimens, standard, and HRP-labeled detection antibody, and then incubate and wash thoroughly. Use a substrate TMB for color development, TMB is converted into blue under the catalysis of peroxidase and converted into the final yellow color under the action of acid. The color intensity is positively correlated with the rat adenosine triphosphate (ATP) in the sample. […] Determination of lactic acid (LC): Perform enzyme-linked immunosorbent assay by double-antibody one-step sandwich method. To the coated microwells pre-coated with rat lactic acid (LC) capture antibody, add in sequence the specimens, standard, and HRP-labeled detection antibody, and then incubate and wash thoroughly. Use a substrate TMB for color development. TMB is converted into blue under the catalysis of peroxidase and converted into the final yellow color under the action of acid. The color intensity is positively correlated with the rat lactic acid (LC) in the sample.

[4] = Rat body weight before the acute decompression hypoxia experiment (intragastric 7 days)
Description: as §1

[5] = female rats, hypoxia, 0.91 mg/kg
[6] = female rats, hypoxia, 1.83 mg/kg
[7] = female rats, hypoxia, 3.66 mg/kg
[8] = female rats, hypoxia, 7.31 mg/kg
[9] = female rats, hypoxia, 14.63 mg/kg
[10] = female rats, normoxia, 3.66 mg/kg
[11] = male rats, hypoxia, 14.63 mg/kg

O=C(O)c1cc(C(=O)O)c2c(n1)C(=O)C(=O)c1cc(C(=O)O)[nH]c1-2 [PQQ, pyrroloquinoline quinone]
effect on blood glucose ([1]; acute hypoxia exposed female rats): increasing blood glucose | Blood sugar [1, 5]: 8.59 ± 0.48 mmol/L | Blood sugar [1, 6]: 8.28 ± 0.84 mmol/L | Blood sugar [1, 7]: 8.27 ± 0.37 mmol/L | Blood sugar [1, 8]: 7.91 ± 0.65 mmol/L | Blood sugar [1, 9]: 7.55 ± 0.48 mmol/L | effect on blood glucose ([1]; female rats, normoxia): no significant effects | Blood sugar [1, 10]: 8.13 ± 0.57 mmol/L | effect on blood glucose level ([1]; male rats): no significant effects | Blood sugar ([1]; male rats, hypoxia, 0.91 mg/kg): 7.35 ± 1.94 mmol/L | Blood sugar ([1]; male rats, hypoxia, 1.83 mg/kg): 8.21 ± 1.46 mmol/L | Blood sugar ([1]; male rats, hypoxia, 3.66 mg/kg): 8.97 ± 1.44 mmol/L | Blood sugar ([1]; male rats, hypoxia, 7.31 mg/kg): 8.28 ± 1.57 mmol/L | Blood sugar [1, 11]: 8.85 ± 2.04 mmol/L | Creatinine [2, 5]: 14.67 ± 1.46 µmol/L | Serum urea nitrogen [2, 5]: 6.85 ± 0.90 mmol/L | Uric acid [2, 5]: 163.43 ± 12.51 µmol/L | Creatinine [2, 6]: 14.23 ± 1.90 µmol/L | Serum urea nitrogen [2, 6]: 5.98 ± 0.62 mmol/L | Uric acid [2, 6]: 152.71 ± 16.58 µmol/L | Creatinine [2, 7]: 12.71 ± 1.98 µmol/L | Serum urea nitrogen [2, 7]: 5.79 ± 0.62 mmol/L | Uric acid [2, 7]: 151.14 ± 18.48 µmol/L | Creatinine [2, 8]: 16.06 ± 1.19 µmol/L | Serum urea nitrogen [2, 8]: 6.00 ± 0.98 mmol/L | Uric acid [2, 8]: 152.43 ± 25.28 µmol/L | Creatinine [2, 9]: 13.51 ± 1.33 µmol/L | Serum urea nitrogen [2, 9]: 5.86 ± 0.54 mmol/L | Uric acid [2, 9]: 155.33 ± 21.56 µmol/L | effect on serum urea nitrogen, creatinine and uric acid ([2]; female rats, normoxia): no significant effects | Creatinine [2, 10]: 19.37 ± 4.32 µmol/L | Serum urea nitrogen [2, 10]: 6.23 ± 0.36 mmol/L | Uric acid [2, 10]: 193.57 ± 20.80 µmol/L | effect on serum urea nitrogen, creatinine and uric acid ([2]; hypoxia exposed female rats): no significant effects | effect on serum urea nitrogen and creatinine ([2]; hypoxia exposed male rats): no significant effect | effect on serum uric acid content ([2]; hypoxia exposed male rats, low-dose): reduce serum uric acid content | Creatinine ([2]; male rats, hypoxia, 0.91 mg/kg): 18.44 ± 1.46 µmol/L | Serum urea nitrogen ([2]; male rats, hypoxia, 0.91 mg/kg): 5.13 ± 0.75 mmol/L | Uric acid ([2]; male rats, hypoxia, 0.91 mg/kg): 134.25 ± 19.08 µmol/L | Creatinine ([2]; male rats, hypoxia, 1.83 mg/kg): 21.59 ± 3.31 µmol/L | Serum urea nitrogen ([2]; male rats, hypoxia, 1.83 mg/kg): 5.44 ± 1.13 mmol/L | Uric acid ([2]; male rats, hypoxia, 1.83 mg/kg): 142.60 ± 10.78 µmol/L | Creatinine ([2]; male rats, hypoxia, 3.66 mg/kg): 21.90 ± 2.88 µmol/L | Serum urea nitrogen ([2]; male rats, hypoxia, 3.66 mg/kg): 6.37 ± 1.64 mmol/L | Uric acid ([2]; male rats, hypoxia, 3.66 mg/kg): 171.38 ± 14.92 µmol/L | Creatinine ([2]; male rats, hypoxia, 7.31 mg/kg): 22.40 ± 1.53 µmol/L | Serum urea nitrogen ([2]; male rats, hypoxia, 7.31 mg/kg): 5.91 ± 0.86 mmol/L | Uric acid ([2]; male rats, hypoxia, 7.31 mg/kg): 202.16 ± 17.13 µmol/L | Creatinine [2, 11]: 22.49 ± 3.00 µmol/L | Serum urea nitrogen [2, 11]: 6.23 ± 1.36 mmol/L | Uric acid [2, 11]: 182.22 ± 15.80 µmol/L | serum Lactic acid [3, 5]: 222.06 ± 12.56 ng/L | serum Lactic acid [3, 6]: 221.04 ± 14.36 ng/L | serum Lactic acid [3, 7]: 242.8 ± 8.13 ng/L | serum Lactic acid [3, 8]: 196.41 ± 11.86 ng/L | serum Lactic acid [3, 9]: 173.09 ± 24.20 ng/L | effect on serum ATP content ([3]; female rats, normoxia): no significant effect | effect on serum lactic acid content ([3]; female rats, normoxia): reducing | serum Lactic acid [3, 10]: 116.73 ± 13.32 ng/L | effect on serum ATP and lactic acid content ([3]; hypoxia exposed female rats): increasing | effect on serum ATP and lactic acid content ([3]; male rats): no significant effects | serum Lactic acid ([3]; male rats, hypoxia, 0.91 mg/kg): 188.70 ± 29.68 ng/L | serum Lactic acid ([3]; male rats, hypoxia, 1.83 mg/kg): 177.33 ± 19.55 ng/L | serum Lactic acid ([3]; male rats, hypoxia, 3.66 mg/kg): 189.12 ± 24.64 ng/L | serum Lactic acid ([3]; male rats, hypoxia, 7.31 mg/kg): 172.64 ± 12.25 ng/L | serum Lactic acid [3, 11]: 180.81 ± 24.64 ng/L | rat body weight Female 1 day ([4]; 0.91 mg/kg): 154.4 ± 7.2 g | rat body weight Female 7 days ([4]; 0.91 mg/kg): 169.6 ± 3.3 g | rat body weight Male 1 day ([4]; 0.91 mg/kg): 173.4 ± 7.4 g | rat body weight Male 7 days ([4]; 0.91 mg/kg): 196.4 ± 5.7 g | rat body weight Female 1 day ([4]; 1.83 mg/kg): 153.6 ± 6.9 g | rat body weight Female 7 days ([4]; 1.83 mg/kg): 167.4 ± 6.7 g | rat body weight Male 1 day ([4]; 1.83 mg/kg): 173.6 ± 5.9 g | rat body weight Male 7 days ([4]; 1.83 mg/kg): 206.8 ± 6.2 g | rat body weight Female 1 day ([4]; 3.66 mg/kg): 154.1 ± 8.6 g | rat body weight Female 7 days ([4]; 3.66 mg/kg): 172.1 ± 2.2 g | rat body weight Male 1 day ([4]; 3.66 mg/kg): 170.8 ± 10.8 g | rat body weight Male 7 days ([4]; 3.66 mg/kg): 198.3 ± 9.0 g | rat body weight Female 1 day ([4]; 7.31 mg/kg): 154.3 ± 7.7 g

Source: patent publication US20220023289A1, “Application Of Pyrroloquinoline Quinone In Preparation Of Medicament Used For Preventing And Treating Acute Altitude Sickness And Acute Altitude Hypoxia Injury” (priority 2018, published 2022)
